Some test systems named below: 786-0 renal; COLO 205 colon; DLD-1 colon; HCT-116 colon; HOP-18 NSCLC; HT29 colon; KM20L2 colon; M19-MEL melanoma; MDA-MB-231 breast; MDA-N; MOLT-4 leukemia; SK-MEL-28 melanoma; SN12C renal; SNB-78 CNS; T-47D breast.
Assay in all cases: growth of human tumour cells (NCI), 48 h

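Cultured in 96-well plates, cells were exposed to test compound for 48 hours across five concentrations. GI50 is the concentration that inhibits growth by half. TGI is the concentration that stops growth completely.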

Results on nine compounds are retold here after PubChem BioAssay (NCI).

Regarding `COc1cccc2c1C(=O)c1c(O)c3c(c(O)c1C2=O)C[C@@](O)(/C(C)=N/NC(=O)c1ccccc1)C[C@@H]3OC1CC(N)C(O)C(C)O1` (stereo not given in full), the TGI was determined as 0.744 µM in the assay on 786-0 renal; 3.2 µM in the assay with COLO 205 colon; 17.6 µM with DLD-1 colon; 10.2 µM in the assay on HCT-116 colon; 6.61 µM in the assay with HOP-18 NSCLC; 6.04 µM in the assay with HT29 colon. The TGI is 9.23 µM with KM20L2 colon; 2.99 µM with M19-MEL melanoma; 3.14 µM in the assay on MDA-MB-231 breast; 1.96 µM with MDA-N; 0.681 µM in the assay with MOLT-4 leukemia; 4.02 µM with SK-MEL-28 melanoma. Further, the TGI worked out at 5.7 µM with SN12C renal, 6.1 µM in the assay with SNB-78 CNS and 3.44 µM in the assay on T-47D breast.

Regarding `COc1ccc(CCCC(=O)O)c(C)c1`, the TGI in the assay on 786-0 renal, in the assay on HCT-116 colon, in the assay on HT29 colon, in the assay on MDA-MB-231 breast, with MDA-N and with MOLT-4 leukemia was > 100 µM throughout. Also, the TGI in the assay on SK-MEL-28 melanoma, in the assay on SN12C renal and in the assay with T-47D breast was > 100 µM each time.

With `Nc1nc(N)c2nc(-c3ccco3)cnc2n1`, the TGI with 786-0 renal, in the assay with COLO 205 colon, with DLD-1 colon, in the assay on HCT-116 colon, in the assay with HOP-18 NSCLC and in the assay on HT29 colon was > 100 µM each time. Besides, the TGI in the assay on KM20L2 colon, with M19-MEL melanoma, with MOLT-4 leukemia, with SK-MEL-28 melanoma, in the assay on SN12C renal and with SNB-78 CNS was > 100 µM each time.

On to `COc1cc2cc(C(=O)N3CC(CCl)c4c3cc(N(C)C)c3ccccc43)[nH]c2c(OC)c1OC` (stereo not given), for which the TGI with HCT-116 colon is > 100 µM; in the assay with MDA-MB-231 breast, > 100 µM; in the assay on MOLT-4 leukemia, 0.0608 µM; in the assay on SN12C renal, 0.235 µM.

With `NC(Cc1c[nH]c2ccccc12)C(=O)O` (stereo not given), the TGI in the assay with COLO 205 colon was > 300 µM; in the assay on DLD-1 colon, > 300 µM; in the assay with HCT-116 colon it was > 300 µM; in the assay with HOP-18 NSCLC, 196 µM; with HT29 colon it was > 300 µM; in the assay on KM20L2 colon it was > 300 µM. Besides, the TGI was > 300 µM in the assay on M19-MEL melanoma; > 300 µM in the assay with MOLT-4 leukemia; > 300 µM in the assay with SK-MEL-28 melanoma; > 13.9 µM in the assay on SN12C renal; > 300 µM in the assay with SNB-78 CNS.

In the case of `CC12CC3(O)OC(O1)C1(COC(=O)c4ccccc4)C3CC21OC1OC(CO)C(O)C(O)C1O` (stereo not given), the TGI in the assay with 786-0 renal, in the assay on COLO 205 colon, in the assay on HCT-116 colon, with HT29 colon, with MDA-MB-231 breast and with MDA-N was > 100 µM in each case. In addition, the TGI in the assay on MOLT-4 leukemia, in the assay on SK-MEL-28 melanoma, in the assay with SN12C renal and in the assay with T-47D breast was > 100 µM in each case.

In the case of `Clc1ccc2c(NCCNc3ccnc4cc(Cl)ccc34)ccnc2c1`, the TGI with 786-0 renal came out at 28.2 µM; with COLO 205 colon it was 30.1 µM; with HCT-116 colon, 33.1 µM; in the assay on HT29 colon, 29.5 µM; in the assay on MDA-MB-231 breast it was 32.2 µM; with MDA-N, 31.6 µM. The TGI came to 35.3 µM with MOLT-4 leukemia, 32.5 µM in the assay on SK-MEL-28 melanoma, 33.4 µM in the assay on SN12C renal and 43.8 µM with T-47D breast.

Take `CC[C@@]1(O)C(=O)OCc2c1cc1n(c2=O)Cc2c-1nc1ccccc1c2/C=N\NC(=O)C(N)Cc1cnc[nH]1` (stereo not given in full): the TGI with COLO 205 colon is > 100 µM; in the assay on HCT-116 colon, > 41.4 µM; with HT29 colon, > 57.3 µM; in the assay with MDA-MB-231 breast, > 100 µM; in the assay with MDA-N, > 100 µM; in the assay with MOLT-4 leukemia, 0.243 µM. In addition, the TGI was > 100 µM with SK-MEL-28 melanoma, > 73 µM in the assay with SN12C renal and > 100 µM in the assay on T-47D breast.

As to `COc1cc(/C=C2\CN(S(=O)(=O)c3ccc(C)cc3)C/C(=C\c3cc(CN4CCCCC4)c(O)c(OC)c3)C2=O)cc(CN2CCCCC2)c1O`, the GI50 is 1.68 µM in the assay on COLO 205 colon; 1.14 µM with MDA-MB-231 breast; 0.918 µM in the assay on MOLT-4 leukemia; 1.61 µM in the assay on SK-MEL-28 melanoma; 1.77 µM with SN12C renal. The TGI in the assay on COLO 205 colon was 3.58 µM; in the assay on MDA-MB-231 breast, 2.77 µM; in the assay with MOLT-4 leukemia it was 5.04 µM; in the assay on SK-MEL-28 melanoma, 3.13 µM; in the assay with SN12C renal, 3.42 µM.
